The values that follow come from the supplement of paper PMC10307832.

What all share (assay): relative viability (nuclei count vs DMSO), 5 days (fraction); higher = more cells survive
Compound in the assay “JZL-184 + Palbociclib”: C1CN(CCC1C(C2=CC3=C(C=C2)OCO3)(C4=CC5=C(C=C4)OCO5)O)C(=O)OC6=CC=C(C=C6)[N+](=O)[O-] [JZL-184] + CC(=O)c1c(C)c2cnc(Nc3ccc(N4CCNCC4)cn3)nc2n(C2CCCC2)c1=O [Palbociclib] (partner 0.5 µM)
In outline: (§1)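 Each reported value is a median over duplicate plates. It expresses relative viability: treated-well nuclei count divided by vehicle-well nuclei count. Lung cancer cell lines in 1536-well plates were dosed by pin tool a day after seeding, alone with one drug or with a fixed anchor-drug dose plus five library-drug doses (not always all listed) in √10 steps, and nuclei were counted after 5 days.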

Compound in the assay “JZL-184 + Linsitinib”: C1CN(CCC1C(C2=CC3=C(C=C2)OCO3)(C4=CC5=C(C=C4)OCO5)O)C(=O)OC6=CC=C(C=C6)[N+](=O)[O-] [JZL-184] + C[C@]1(O)C[C@@H](c2nc(-c3ccc4ccc(-c5ccccc5)nc4c3)c3c(N)nccn32)C1 [Linsitinib] (partner 1 µM)
In outline:
as §1

Compound in the assay “JZL-184 + AZD7762”: C1CN(CCC1C(C2=CC3=C(C=C2)OCO3)(C4=CC5=C(C=C4)OCO5)O)C(=O)OC6=CC=C(C=C6)[N+](=O)[O-] [JZL-184] + NC(=O)Nc1cc(-c2cccc(F)c2)sc1C(=O)N[C@H]1CCCNC1 [AZD7762] (partner 0.2 µM)
The gist of the method: as §1

Compound in the assay “JZL-184 + Olaparib”: C1CN(CCC1C(C2=CC3=C(C=C2)OCO3)(C4=CC5=C(C=C4)OCO5)O)C(=O)OC6=CC=C(C=C6)[N+](=O)[O-] [JZL-184] + O=C(c1cc(Cc2n[nH]c(=O)c3ccccc23)ccc1F)N1CCN(C(=O)C2CC2)CC1 [Olaparib] (partner 8 µM)
In outline: as §1

Compound in the assay “JZL-184 + Luminespib”: C1CN(CCC1C(C2=CC3=C(C=C2)OCO3)(C4=CC5=C(C=C4)OCO5)O)C(=O)OC6=CC=C(C=C6)[N+](=O)[O-] [JZL-184] + CCNC(=O)c1noc(-c2cc(C(C)C)c(O)cc2O)c1-c1ccc(CN2CCOCC2)cc1 [Luminespib] (partner 0.01 µM)
In outline:
as §1

Turning to NCI-H1944, the relative viability was 0.338 with JZL-184 + Palbociclib (first compound 0.04 µM); 0.289 in the assay with JZL-184 + Palbociclib (first compound 0.4 µM); 0.347 in the assay with JZL-184 + Palbociclib (first compound 1.265 µM); 0.328 in the assay with JZL-184 + Palbociclib (first compound 4 µM); 1.18 in the assay with JZL-184 + Linsitinib (first compound 0.04 µM); 1.2 with JZL-184 + Linsitinib (first compound 0.4 µM). For the same cell line, the relative viability with JZL-184 + Linsitinib (first compound 1.265 µM) was 1.28; in the assay with JZL-184 + Linsitinib (first compound 4 µM), 1.16; with JZL-184 + AZD7762 (first compound 0.04 µM), 0.556; with JZL-184 + AZD7762 (first compound 0.4 µM), 0.469; with JZL-184 + AZD7762 (first compound 1.265 µM), 0.531; in the assay with JZL-184 + AZD7762 (first compound 4 µM) it was 0.54. In addition, the relative viability with JZL-184 + Olaparib (first compound 0.04 µM) was 0.402; with JZL-184 + Olaparib (first compound 0.4 µM) it was 0.351; with JZL-184 + Olaparib (first compound 1.265 µM) it was 0.401; with JZL-184 + Olaparib (first compound 4 µM), 0.444; in the assay with JZL-184 + Luminespib (first compound 0.04 µM) it was 0.615; with JZL-184 + Luminespib (first compound 0.4 µM), 0.682. For the same cell line, the relative viability with JZL-184 + Luminespib (first compound 1.265 µM) is 0.766; with JZL-184 + Luminespib (first compound 4 µM), 0.754.
In the case of NCI-H1975, the relative viability with JZL-184 + Palbociclib (first compound 0.04 µM) was determined as 0.679; with JZL-184 + Palbociclib (first compound 0.4 µM) it was 0.579; in the assay with JZL-184 + Palbociclib (first compound 1.265 µM), 0.614; in the assay with JZL-184 + Palbociclib (first compound 4 µM), 0.575; with JZL-184 + Linsitinib (first compound 0.04 µM) it was 1.04; with JZL-184 + Linsitinib (first compound 0.4 µM) it was 1.04. Further, the relative viability with JZL-184 + Linsitinib (first compound 1.265 µM) was 1.02; with JZL-184 + Linsitinib (first compound 4 µM), 0.896; in the assay with JZL-184 + AZD7762 (first compound 0.04 µM), 0.723; with JZL-184 + AZD7762 (first compound 0.4 µM) it was 0.664; with JZL-184 + AZD7762 (first compound 1.265 µM), 0.804; in the assay with JZL-184 + AZD7762 (first compound 4 µM), 0.583. For the same cell line, the relative viability in the assay with JZL-184 + Olaparib (first compound 0.04 µM) is 0.849; with JZL-184 + Olaparib (first compound 0.4 µM) it was 0.726; in the assay with JZL-184 + Olaparib (first compound 1.265 µM), 0.876; with JZL-184 + Olaparib (first compound 4 µM) it was 0.694; in the assay with JZL-184 + Luminespib (first compound 0.04 µM), 0.275; in the assay with JZL-184 + Luminespib (first compound 0.4 µM), 0.292. For the same cell line, the relative viability worked out at 0.265 with JZL-184 + Luminespib (first compound 1.265 µM) and 0.168 with JZL-184 + Luminespib (first compound 4 µM).
Turning to NCI-H1993, the relative viability with JZL-184 + Palbociclib (first compound 0.04 µM) was found to be 0.707; with JZL-184 + Palbociclib (first compound 0.4 µM), 0.604; with JZL-184 + Palbociclib (first compound 1.265 µM), 0.758; with JZL-184 + Palbociclib (first compound 4 µM), 0.604; with JZL-184 + Linsitinib (first compound 0.04 µM), 0.703; with JZL-184 + Linsitinib (first compound 0.4 µM), 0.773. In addition, the relative viability is 0.727 with JZL-184 + Linsitinib (first compound 1.265 µM); 0.696 with JZL-184 + Linsitinib (first compound 4 µM); 0.704 with JZL-184 + AZD7762 (first compound 0.04 µM); 0.725 with JZL-184 + AZD7762 (first compound 0.4 µM); 0.885 with JZL-184 + AZD7762 (first compound 1.265 µM); 0.803 in the assay with JZL-184 + AZD7762 (first compound 4 µM). The relative viability with JZL-184 + Olaparib (first compound 0.04 µM) is 1.11; with JZL-184 + Olaparib (first compound 0.4 µM), 1.05; with JZL-184 + Olaparib (first compound 1.265 µM), 1.13; with JZL-184 + Olaparib (first compound 4 µM), 0.966; in the assay with JZL-184 + Luminespib (first compound 0.04 µM) it was 0.846; in the assay with JZL-184 + Luminespib (first compound 0.4 µM), 0.745. Further, the results for the relative viability in the assay with JZL-184 + Luminespib (first compound 1.265 µM) and with JZL-184 + Luminespib (first compound 4 µM) were 0.885 and 0.968, respectively.
NCI-H2085: the relative viability with JZL-184 + Palbociclib (first compound 0.4 µM) was found to be 0.489; in the assay with JZL-184 + Palbociclib (first compound 1.265 µM), 0.44; in the assay with JZL-184 + Palbociclib (first compound 4 µM), 0.469; with JZL-184 + Linsitinib (first compound 0.04 µM), 0.852; with JZL-184 + Linsitinib (first compound 0.4 µM), 0.862; with JZL-184 + Linsitinib (first compound 1.265 µM) it was 1.18. In addition, the relative viability with JZL-184 + Linsitinib (first compound 4 µM) was 0.866; in the assay with JZL-184 + AZD7762 (first compound 0.4 µM) it was 0.886; with JZL-184 + AZD7762 (first compound 1.265 µM), 1.02; in the assay with JZL-184 + AZD7762 (first compound 4 µM), 1.01; with JZL-184 + Olaparib (first compound 0.4 µM), 0.743; with JZL-184 + Olaparib (first compound 1.265 µM), 0.815. Further, the relative viability came to 0.704 with JZL-184 + Olaparib (first compound 4 µM); 0.327 with JZL-184 + Luminespib (first compound 0.04 µM); 0.454 in the assay with JZL-184 + Luminespib (first compound 0.4 µM); 0.46 with JZL-184 + Luminespib (first compound 1.265 µM); 0.443 with JZL-184 + Luminespib (first compound 4 µM).
NCI-H2087: the relative viability amounted to 0.231 with JZL-184 + Palbociclib (first compound 0.04 µM); 0.215 in the assay with JZL-184 + Palbociclib (first compound 0.4 µM); 0.259 in the assay with JZL-184 + Palbociclib (first compound 1.265 µM); 0.227 with JZL-184 + Palbociclib (first compound 4 µM); 1.14 with JZL-184 + Linsitinib (first compound 0.04 µM); 0.765 with JZL-184 + Linsitinib (first compound 0.4 µM). In addition, the relative viability is 0.999 with JZL-184 + Linsitinib (first compound 1.265 µM); 0.961 with JZL-184 + Linsitinib (first compound 4 µM); 1.33 in the assay with JZL-184 + AZD7762 (first compound 0.04 µM); 1.2 with JZL-184 + AZD7762 (first compound 0.4 µM); 1.26 with JZL-184 + AZD7762 (first compound 1.265 µM); 1.34 with JZL-184 + AZD7762 (first compound 4 µM). The relative viability stood at 0.714 in the assay with JZL-184 + Olaparib (first compound 0.04 µM); 0.585 with JZL-184 + Olaparib (first compound 0.4 µM); 0.665 with JZL-184 + Olaparib (first compound 1.265 µM); 0.517 with JZL-184 + Olaparib (first compound 4 µM); 0.167 with JZL-184 + Luminespib (first compound 0.04 µM); 0.134 with JZL-184 + Luminespib (first compound 0.4 µM). Also, the relative viability with JZL-184 + Luminespib (first compound 1.265 µM) was found to be 0.157; with JZL-184 + Luminespib (first compound 4 µM), 0.209.
Consider NCI-H2126, for which the relative viability in the assay with JZL-184 + Palbociclib (first compound 0.04 µM) turned out to be 0.329; with JZL-184 + Palbociclib (first compound 0.4 µM) it was 0.357; in the assay with JZL-184 + Palbociclib (first compound 1.265 µM), 0.359; in the assay with JZL-184 + Palbociclib (first compound 4 µM) it was 0.345; with JZL-184 + Linsitinib (first compound 0.04 µM) it was 0.644; with JZL-184 + Linsitinib (first compound 0.4 µM), 0.673. In addition, the relative viability with JZL-184 + Linsitinib (first compound 1.265 µM) turned out to be 0.701; with JZL-184 + Linsitinib (first compound 4 µM), 0.693; in the assay with JZL-184 + AZD7762 (first compound 0.04 µM), 1.06; with JZL-184 + AZD7762 (first compound 0.4 µM) it was 1.01; with JZL-184 + AZD7762 (first compound 1.265 µM), 1.02; in the assay with JZL-184 + AZD7762 (first compound 4 µM), 0.996. In addition, the relative viability with JZL-184 + Olaparib (first compound 0.04 µM) came to 0.892; with JZL-184 + Olaparib (first compound 0.4 µM), 0.891; in the assay with JZL-184 + Olaparib (first compound 1.265 µM), 0.975; with JZL-184 + Olaparib (first compound 4 µM), 0.925; with JZL-184 + Luminespib (first compound 0.04 µM), 1.06; with JZL-184 + Luminespib (first compound 0.4 µM), 0.876. Further, the relative viability stood at 0.922 with JZL-184 + Luminespib (first compound 1.265 µM) and 0.92 with JZL-184 + Luminespib (first compound 4 µM).
